Measured values reported in ChEMBL document CHEMBL1201862, “PubChem BioAssay data set” (2004).
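Test compounds were applied to cells in 96-well plates for 48 hours at 5 doses. At the GI50, growth is halved.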 The source made the active and inactive calls. Cut-off read from the data, not from the text of the source: active = GI50 up to about 1.1 µM and inactive = higher.

Experiments:
Assay in all cases: NCI tumour cell line growth inhibition, 48 h
TK-10 = tested on: TK-10
RPMI-8226 = tested on: RPMI-8226
SK-MEL-2 = tested on: SK-MEL-2
SW-620 = tested on: SW-620
PC-3 = tested on: PC-3
SK-OV-3 = tested on: SK-OV-3
HOP-92 = tested on: HOP-92
COLO 205 = tested on: COLO 205
SR = tested on: SR
HL-60 = tested on: HL-60
M14 = tested on: M14
HCC 2998 = tested on: HCC 2998
MDA-N = tested on: MDA-N
HT-29 = tested on: HT-29
EKVX = tested on: EKVX
NCI/ADR-RES = tested on: NCI/ADR-RES
SF-268 = tested on: SF-268
NCI-H23 = tested on: NCI-H23
T47D = tested on: T47D
U-251 = tested on: U-251
HOP-62 = tested on: HOP-62
CAKI-1 = tested on: CAKI-1
NCI-H522 = tested on: NCI-H522
HCT-116 = tested on: HCT-116
A498 = tested on: A498
LOX IMVI = tested on: LOX IMVI
SNB-19 = tested on: SNB-19
NCI-H226 = tested on: NCI-H226
SK-MEL-28 = tested on: SK-MEL-28
NCI-H460 = tested on: NCI-H460
SN12C = tested on: SN12C
SF-539 = tested on: SF-539
SF-295 = tested on: SF-295
DU-145 = tested on: DU-145
UACC-62 = tested on: UACC-62
IGROV-1 = tested on: IGROV-1
KM12 = tested on: KM12
MOLT-4 = tested on: MOLT-4
MDA-MB-231 = tested on: MDA-MB-231
UO-31 = tested on: UO-31
Hs-578T = tested on: Hs-578T
OVCAR-3 = tested on: OVCAR-3
OVCAR-5 = tested on: OVCAR-5
MDA-MB-435 = tested on: MDA-MB-435
786-0 = tested on: 786-0
CCRF-CEM = tested on: CCRF-CEM
ACHN = tested on: ACHN
RXF 393 = tested on: RXF 393
Malme-3M = tested on: Malme-3M
K562 = tested on: K562
SNB-75 = tested on: SNB-75
OVCAR-4 = tested on: OVCAR-4
HCT-15 = tested on: HCT-15
SK-MEL-5 = tested on: SK-MEL-5
A549 = tested on: A549

Q: How did the GI50 (TK-10) turn out when `CCC(C)(C)/C(CC(O)(C(F)(F)F)C(F)(F)F)=N\O` was run?
A: The GI50 was > 100 µM (inactive).

Q: And the GI50 (RPMI-8226)?
A: The GI50 was > 100 µM (inactive).

Q: And the GI50 (SK-MEL-2)?
A: Its GI50 is > 100 µM (inactive).

Q: And the GI50 (SW-620)?
A: Its GI50 is > 100 µM (inactive).

Q: What about the GI50 (PC-3) of the same molecule?
A: The GI50 was > 100 µM (inactive).

Q: And the GI50 (SK-OV-3)?
A: Its GI50 is > 100 µM (inactive).

Q: What about the GI50 (HOP-92) of the same molecule?
A: The GI50 was > 100 µM (inactive).

Q: And the GI50 (COLO 205)?
A: The GI50 was > 100 µM (inactive).

Q: And the GI50 (SR)?
A: Its GI50 is > 100 µM (inactive).

Q: What about the GI50 (HL-60) of the same molecule?
A: Its GI50 is > 100 µM (inactive).

Q: And the GI50 (M14)?
A: Its GI50 is > 100 µM (inactive).

Q: What about the GI50 (HCC 2998) of the same molecule?
A: Its GI50 is > 100 µM (inactive).

Q: And the GI50 (MDA-N)?
A: The GI50 was > 100 µM (inactive).

Q: What about the GI50 (HT-29) of the same molecule?
A: Its GI50 is > 100 µM (inactive).

Q: And the GI50 (EKVX)?
A: Its GI50 is > 100 µM (inactive).

Q: And the GI50 (NCI/ADR-RES)?
A: Its GI50 is > 100 µM (inactive).

Q: What about the GI50 (SF-268) of the same molecule?
A: Its GI50 is > 100 µM (inactive).

Q: And the GI50 (NCI-H23)?
A: The GI50 was > 100 µM (inactive).

Q: And the GI50 (T47D)?
A: Its GI50 is > 100 µM (inactive).

Q: And the GI50 (U-251)?
A: The GI50 was > 100 µM (inactive).

Q: And the GI50 (HOP-62)?
A: The GI50 was > 100 µM (inactive).

Q: And the GI50 (CAKI-1)?
A: Its GI50 is > 100 µM (inactive).

Q: What about the GI50 (NCI-H522) of the same molecule?
A: The GI50 was > 100 µM (inactive).

Q: What about the GI50 (HCT-116) of the same molecule?
A: Its GI50 is > 100 µM (inactive).

Q: And the GI50 (A498)?
A: Its GI50 is > 100 µM (inactive).

Q: What about the GI50 (LOX IMVI) of the same molecule?
A: The GI50 was > 100 µM (inactive).

Q: What about the GI50 (SNB-19) of the same molecule?
A: Its GI50 is > 100 µM (inactive).

Q: What about the GI50 (NCI-H226) of the same molecule?
A: Its GI50 is > 100 µM (inactive).

Q: What about the GI50 (SK-MEL-28) of the same molecule?
A: The GI50 was > 100 µM (inactive).

Q: What about the GI50 (NCI-H460) of the same molecule?
A: Its GI50 is > 100 µM (inactive).

Q: What about the GI50 (SN12C) of the same molecule?
A: Its GI50 is > 100 µM (inactive).

Q: What about the GI50 (SF-539) of the same molecule?
A: Its GI50 is > 100 µM (inactive).

Q: What about the GI50 (SF-295) of the same molecule?
A: The GI50 was > 100 µM (inactive).

Q: And the GI50 (DU-145)?
A: The GI50 was > 100 µM (inactive).

Q: What about the GI50 (UACC-62) of the same molecule?
A: The GI50 was > 100 µM (inactive).

Q: What about the GI50 (IGROV-1) of the same molecule?
A: Its GI50 is > 100 µM (inactive).

Q: What about the GI50 (KM12) of the same molecule?
A: Its GI50 is > 100 µM (inactive).

Q: And the GI50 (MOLT-4)?
A: The GI50 was > 100 µM (inactive).

Q: And the GI50 (MDA-MB-231)?
A: Its GI50 is > 100 µM (inactive).

Q: And the GI50 (UO-31)?
A: Its GI50 is > 100 µM (inactive).

Q: And the GI50 (Hs-578T)?
A: Its GI50 is > 100 µM (inactive).

Q: What about the GI50 (OVCAR-3) of the same molecule?
A: Its GI50 is > 100 µM (inactive).

Q: What about the GI50 (OVCAR-5) of the same molecule?
A: Its GI50 is > 100 µM (inactive).

Q: And the GI50 (MDA-MB-435)?
A: Its GI50 is > 100 µM (inactive).

Q: What about the GI50 (786-0) of the same molecule?
A: Its GI50 is > 100 µM (inactive).

Q: What about the GI50 (CCRF-CEM) of the same molecule?
A: The GI50 was > 100 µM (inactive).

Q: What about the GI50 (ACHN) of the same molecule?
A: Its GI50 is > 100 µM (inactive).

Q: What about the GI50 (RXF 393) of the same molecule?
A: Its GI50 is > 100 µM (inactive).

Q: And the GI50 (Malme-3M)?
A: The GI50 was > 100 µM (inactive).

Q: What about the GI50 (K562) of the same molecule?
A: The GI50 was > 100 µM (inactive).

Q: And the GI50 (SNB-75)?
A: The GI50 was > 100 µM (inactive).

Q: What about the GI50 (OVCAR-4) of the same molecule?
A: The GI50 was > 100 µM (inactive).

Q: And the GI50 (HCT-15)?
A: Its GI50 is > 100 µM.

Q: What about the GI50 (SK-MEL-5) of the same molecule?
A: The GI50 was > 100 µM (inactive).

Q: What about the GI50 (A549) of the same molecule?
A: The GI50 was > 100 µM (inactive).
